The source of these data is ChEMBL document CHEMBL1123556, “Synthesis of antimicrobial agents. 1. Syntheses and antibacterial activities of 7-(azole substituted)quinolones” (J Med Chem, 1987).

Each structure is given as a SMILES string. ≈ marks a conversion by molar mass, not a printed value.

Series [1] can be described thus: Concentrations in serum after 120 minutes at 50 mg / kg oral administration. It counts as ADME, cell-free.
Series [2] can be described thus: Concentrations in serum after 30 minutes at 50 mg / kg oral administration. It counts as ADME, cell-free.
Series [3] deals with Mus musculus. Description: In vivo antibacterial activity against Escherichia coli (KC-14) was determined for the compound administered perorally; Value ranges from 2.4-4.7. It counts as functional. The conditions noted are these: po.
Series [4] can be described thus: In vivo acute toxicity against Escherichia coli (KC-14) was determined for the compound administered orally. The series is classed as organism-based. Conditions: mouse, po.
A short description of series [5]: Concentrations in serum after 240 minutes at 50 mg / kg oral administration. It counts as ADME.
A short description of series [6]: Total serum concentrations at 0 to 4 hours interval was determined by 50 mg / kg oral administration. The series is classed as ADME, cell-free.
Series [7] is described as follows: In vivo acute toxicity against Escherichia coli (KC-14) was determined for the compound administered intravenously. The series is classed as organism-based. The conditions noted are these: mouse, iv.
A short description of series [8]: Concentrations in serum after 60 minutes at 50 mg / kg oral administration. The series is classed as ADME, cell-free.
Series [9] has as its system Staphylococcus aureus. Description: In vitro antibacterial activity against Staphylococcus aureus FDA 209P JC-1. The series is classed as functional.
The test system of series [10] is Proteus vulgaris. Description: In vitro antibacterial activity against Proteus vulgaris HX-19. The series is classed as functional.
Series [11] concerns Bacillus subtilis. Kind of series: In vitro antibacterial activity against Bacillus subtilis ATCC 6633. It counts as functional.
Series [12] concerns Staphylococcus epidermidis. Kind of series: microbe, parasite or virus in culture. The series is classed as functional.
Series [13] concerns Escherichia coli. Description: In vitro antibacterial activity against Escherichia coli NIHJ JC-2. It counts as functional.
Series [14] concerns Pseudomonas aeruginosa. Description: In vitro antibacterial activity against Pseudomonas aeruginosa IFO 3445. The series is classed as functional.
Series [15] concerns Klebsiella pneumoniae. Description: microbe, parasite or virus in culture. The series is classed as functional.
Series [16] concerns Salmonella paratyphi. Kind of series: microbe, parasite or virus in culture. It counts as functional, Salmonella enterica subsp. enterica serovar Paratyphi A. The conditions noted are these: Salmonella enterica.
The test system of series [17] is Staphylococcus epidermidis. Description: In vitro antibacterial activity against Staphylococcus epidermidis IAM 1576. The series is classed as functional.
In series [18] the test system is Salmonella paratyphi. Description: In vitro antibacterial activity against Salmonella paratyphi 1015. The conditions noted are these: Salmonella enterica. The series is classed as functional, Salmonella enterica subsp. enterica serovar Paratyphi A.
Series [19] has as its system Klebsiella pneumoniae. Description: In vitro antibacterial activity against Klebsiella pneumoniae PCI-602. It counts as functional.
Series [20] concerns Mus musculus. Kind of series: In vivo antibacterial activity against Escherichia coli (KC-14) was determined for the compound administered perorally; Value ranges from 3.3-5.0. It counts as functional. The conditions noted are these: po.
Series [21] has as its system Mus musculus. Kind of series: In vivo antibacterial activity against Escherichia coli (KC-14) was determined for the compound administered perorally. The conditions noted are these: po. It counts as functional.
Series [22] has as its system Mus musculus. Kind of series: In vivo antibacterial activity against Escherichia coli (KC-14) was determined for the compound administered perorally; Value ranges from 4.8-9.4. The series is classed as functional. Conditions: po.

Take `CCn1cc(C(=O)O)c(=O)c2cc(F)c(-n3cnc(C)c3)c(F)c21`: the concentration at 2 h in [1] stood at 10000 ng/mL. Moreover, in series [2], the concentration at 0.5 h stood at 49200 ng/mL. In addition, the 50% effect level in series [3] (ED50) was put at a dose of 3.3 mg/kg. Further, the LD50 in series [4] was 4000 mg/kg; in series [7] it was 593 mg/kg. In addition, the concentration at 4 h in series [5] was determined as 6300 ng/mL. Moreover, the Concentration in serum in series [6] was found to be 67900 ng/mL. In [8], this compound came in with a concentration at 1 h of 29400 ng/mL.

Consider `CCn1cc(C(=O)O)c(=O)c2cc(F)c(-n3cnc(C(=O)OC)c3)c(F)c21`, for which the MIC in series [9] was found to be 25 µg/mL (≈ 66.3 µM); in series [10], 1.56 µg/mL (≈ 4.13 µM); in series [11] it was 12.5 µg/mL (≈ 33.1 µM); in [12], 25 µg/mL (≈ 66.3 µM); in [13] it was 25 µg/mL (≈ 66.3 µM); in series [14], 25 µg/mL (≈ 66.3 µM). Besides, the MIC in [15] and in series [16] was 3.13 µg/mL (≈ 8.3 µM) in each case.

Turning to `CCn1cc(C(=O)O)c(=O)c2cc(F)c(-n3cccn3)cc21`, the MIC in series [9] came to 6.25 µg/mL (≈ 20.7 µM); in series [10], 0.39 µg/mL (≈ 1.29 µM); in [11], 0.78 µg/mL (≈ 2.59 µM); in series [12] it was 25 µg/mL (≈ 83 µM); in [13], 12.5 µg/mL (≈ 41.5 µM); in series [14], 25 µg/mL (≈ 83 µM). The MIC in series [15] is 0.78 µg/mL (≈ 2.59 µM); in [16] it was 0.39 µg/mL (≈ 1.29 µM).

Consider `CCn1cc(C(=O)O)c(=O)c2cc(F)c(-n3cnc(C=O)c3)c(F)c21`, for which the MIC is 3.13 µg/mL (≈ 9.01 µM) in series [9]; 0.2 µg/mL (≈ 0.576 µM) in [10]; 0.78 µg/mL (≈ 2.25 µM) in [11]; 25 µg/mL (≈ 72 µM) in series [17]; 0.78 µg/mL (≈ 2.25 µM) in series [13]; 25 µg/mL (≈ 72 µM) in [14]. Also, the MIC in [18] and in [19] was 0.2 µg/mL (≈ 0.576 µM) each time.

`CCn1cc(C(=O)O)c(=O)c2cc(F)c(-n3cnc(/C=N/O)c3)c(F)c21`: the MIC in series [9] turned out to be 3.13 µg/mL (≈ 8.64 µM); in [10], 0.78 µg/mL (≈ 2.15 µM); in series [11], 0.78 µg/mL (≈ 2.15 µM); in series [12], 25 µg/mL (≈ 69 µM); in series [13], 6.25 µg/mL (≈ 17.3 µM); in [14], 25 µg/mL (≈ 69 µM). The MIC in [15] and in series [16] was 0.39 µg/mL (≈ 1.08 µM) in each case.

In turn, `CCn1cc(C(=O)O)c(=O)c2cc(F)c(-n3ccnc3)c(F)c21` returned a concentration at 2 h in [1] of 7600 ng/mL. The concentration at 0.5 h in [2] is 44800 ng/mL. For the same compound, the LD50 in series [4] worked out at 4000 mg/kg; in series [7], 773 mg/kg. This compound also gave a concentration at 4 h in series [5] of 1700 ng/mL. The compound further yielded a Concentration in serum in series [6] of 64900 ng/mL. This compound gave a median effective dose (ED50) in [20] of 4 mg/kg. In addition, the concentration at 1 h in series [8] worked out at 39300 ng/mL.

`CCn1cc(C(=O)O)c(=O)c2cc(F)c(-n3cccc3)cc21` [IRLOXACIN] registered a concentration at 2 h in series [1] of 840 ng/mL. Further, the MIC is 0.39 µg/mL (≈ 1.3 µM) in series [9]; 0.1 µg/mL (≈ 0.333 µM) in [10]; 0.05 µg/mL (≈ 0.167 µM) in series [11]; 1.56 µg/mL (≈ 5.19 µM) in [12]; 3.13 µg/mL (≈ 10.4 µM) in [13]; 12.5 µg/mL (≈ 41.6 µM) in series [14]. For the same compound, the MIC was 0.2 µg/mL (≈ 0.666 µM) in series [15] and 0.1 µg/mL (≈ 0.333 µM) in series [16]. Further, the concentration at 0.5 h in series [2] was determined as 5530 ng/mL. This compound had a concentration at 4 h in series [5] of 550 ng/mL. The compound also displayed a Concentration in serum in series [6] of 6800 ng/mL. This compound also showed a 50% effective dose (ED50) in [21] of 50 mg/kg. This compound yielded a concentration at 1 h in [8] of 2200 ng/mL.

As to `CCn1cc(C(=O)O)c(=O)c2cc(F)c(-n3cnc(C(=O)N(C)C)c3)c(F)c21`, the MIC stood at 12.5 µg/mL (≈ 32 µM) in series [9]; 3.13 µg/mL (≈ 8.02 µM) in series [10]; 6.25 µg/mL (≈ 16 µM) in series [11]; 25 µg/mL (≈ 64 µM) in [12]; 25 µg/mL (≈ 64 µM) in series [13]; 25 µg/mL (≈ 64 µM) in series [14]. The results for the MIC in series [15] and in [16] were 1.56 µg/mL (≈ 4 µM) and 3.13 µg/mL (≈ 8.02 µM), respectively.

As for `CCn1cc(C(=O)O)c(=O)c2cc(F)c(N3CCNCC3)cc21` [NORFLOXACIN], the concentration at 2 h in series [1] was 400 ng/mL. The concentration at 0.5 h in series [2] is 1050 ng/mL. Further, the values for the 50% lethal dose (LD50) in series [4] and in series [7] were 4000 mg/kg and 327 mg/kg, respectively. The same compound showed a concentration at 4 h in series [5] of 360 ng/mL. Moreover, the Concentration in serum in [6] worked out at 2000 ng/mL. The same compound yielded an ED50 in series [22] of 6.7 mg/kg. The same compound returned a concentration at 1 h in series [8] of 690 ng/mL.

`CCn1cc(C(=O)O)c(=O)c2cc(F)c(-n3cnc(Br)c3)c(F)c21`: the MIC in [9] is 0.78 µg/mL (≈ 1.96 µM); in series [10] it was 0.2 µg/mL (≈ 0.502 µM); in series [11], 0.2 µg/mL (≈ 0.502 µM); in series [17], 6.25 µg/mL (≈ 15.7 µM); in series [13], 1.56 µg/mL (≈ 3.92 µM); in series [14], 25 µg/mL (≈ 62.8 µM). Besides, the MIC in series [18] and in series [19] was 0.2 µg/mL (≈ 0.502 µM) each time.

Take `CCn1cc(C(=O)O)c(=O)c2cc(F)c(-n3ccnc3)c(SC)c21`: the MIC in series [9] was determined as 3.13 µg/mL (≈ 9.01 µM); in [10], 0.39 µg/mL (≈ 1.12 µM); in series [11] it was 0.39 µg/mL (≈ 1.12 µM); in series [12], 12.5 µg/mL (≈ 36 µM); in series [13], 6.25 µg/mL (≈ 18 µM); in series [14], 25 µg/mL (≈ 72 µM). For the same compound, the MIC in [15] and in series [16] was 0.39 µg/mL (≈ 1.12 µM) in each case.

What is called ED50 is the midpoint of the dose-response relation. Higher therefore signals weaker potency. As usually defined, the LD50 is the dose at which mortality reaches 50%.
